Here are results for 81 molecules from PubChem BioAssay AID463206 (Broad Institute, 2010).

Active and inactive are the calls of the source.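 Rule for the calls: active = caspase luminescence falls with dose and the half-maximal concentration AC50 from the fitted curve is at or below a set limit; inconclusive = flat fit at 30 to 70% signal loss, or invalid fit; inactive = AC50 above the limit, or signal rises instead.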 Where only a bound is given, the exact number is not on record here.

As usually defined, the AC50 is the concentration giving half of the maximal activity seen.

This assay relates to INS-1E cytokine-induced caspase-3/7, Caspase-Glo luminescence, 48 h. Briefly: suppression of cytokine-driven beta-cell apoptosis – INS-1E rat cells, luminescence, orthogonal assay for beta-cell apoptosis protection project, dose response (AID 463206).
Take `CCCCC(=O)NC(c1ccccc1)c1ccc2cccnc2c1O` (stereo unspecified): the AC50 is > 26 µM (inactive).

On to `COc1ccc(-[n+]2c(-c3ccccc3)cc(-c3ccccc3)cc2-c2ccccc2)cc1`, for which the AC50 was > 26 µM (inactive).

Turning to `Cc1ccccc1NC(=O)/C=C/c1ccc([N+](=O)[O-])s1`, the AC50 is > 26 µM (inactive).

Turning to `COc1ccc(-c2n(Cc3ccccc3)c3ccccc3[n+]2Cc2ccccc2)cc1`, the AC50 is > 26 µM (inactive).

With `CC1CN(S(=O)(=O)c2ccc(C(=O)NCCCn3ccnc3)cc2)CC(C)O1` (stereo unspecified), the AC50 is > 26 µM (inactive).

On to `COc1ccc(O)c(/C=N/NC(=O)c2cccc(N3CCCC3=O)c2)c1`, for which the AC50 is > 26 µM (inactive).

In the case of `Fc1cc(F)c2nc(Nc3nc4c(F)cccc4s3)sc2c1`, the AC50 was > 26 µM (inactive).

Consider `O=C(Nc1nc(-c2ccccn2)cs1)c1ccccc1-n1cnnn1`, for which the AC50 was > 26 µM (inactive).

As for `CC(=O)Nc1ccc(S(=O)(=O)N2c3ccccc3NC(=O)CC2C)c(Cl)c1` (stereo unspecified), the AC50 is > 26 µM (inactive).

Regarding `CCCCC(=O)NC(c1ccccc1Cl)c1ccc2cccnc2c1O` (stereo unspecified), the AC50 was > 26 µM (inactive).

On to `CCOc1ccc(-c2c[n+]3c(n2-c2ccccc2)CCCCC3)cc1`, for which the AC50 was > 26 µM (inactive).

Take `CC1(C)C(C=C(Cl)Cl)C1C(=O)Nc1ccc([N+](=O)[O-])cc1` (stereo unspecified): the AC50 is > 26 µM (inactive).

In the case of `C/C(=N/Nc1nc(-c2ccccc2)cc(-c2ccc(F)cc2)n1)c1cccc(N)c1`, the AC50 is > 26 µM (inactive).

On to `CC(=O)c1cccc(N=c2scc(-c3ccc(S(=O)(=O)N4CCOCC4)cc3)n2CCO)c1`, for which the AC50 is > 26 µM (inactive).

With `CCCCCCCCCCCCCCCC[N+](C)(C)CCN(Cc1ccc(OC)cc1)c1ncccn1`, the AC50 is > 26 µM (inactive).

In the case of `Cc1csc2nc(NC(=O)c3ccccc3)sc(=O)c12`, the AC50 was > 26 µM (inactive).

Take `CCc1c(C)sc2nc(C(C)C)nc(SCC(=O)N3CCc4ccccc4C3)c12`: the AC50 is > 26 µM (inactive).

For the molecule `CC(=O)Nc1ccc(S(=O)(=O)NC2=C(N3CCN(c4ccc(F)cc4)CC3)C(=O)c3ccccc3C2=O)cc1`, the AC50 is > 26 µM (inactive).

`Cc1oc2c(c1C(=O)N1CCOCC1)C(=O)c1ccccc1C2=O`: the AC50 was > 26 µM (inactive).

On to `Cc1ccc(-n2cccc2C(=S)N=P(N(C)C)(N(C)C)N(C)C)cc1`, for which the AC50 was > 26 µM (inactive).

With `COc1ccc2c(c1)N(C)/C(=C/c1cccc[n+]1C)S2`, the AC50 is > 26 µM (inactive).

On to `C=C1[C@@H](O)[C@@H]2O[C@]3(CC[C@H](/C=C/[C@@H](C)[C@@H]4CC(C)=CC5(O[C@H](C[C@@](C)(O)C(=O)OC)CC[C@H]5O)O4)O3)CC[C@H]2O[C@@H]1[C@@H](O)C[C@H](C)[C@H]1OC2(CCCCO2)CC[C@H]1C` (stereo partly specified), for which the AC50 was > 26 µM (inactive).

For `Cc1cc(C)cc(NC(=O)/C(C#N)=C/c2cn(CC(=O)NCc3ccco3)c3ccccc23)c1`, the AC50 was > 26 µM (inactive).

Take `Cc1onc(-c2c(Cl)cccc2Cl)c1C(=O)N/N=C(\N)COc1ccc(Cl)cc1`: the AC50 is > 26 µM (inactive).

On to `COc1cc(C(=O)Oc2ccccc2/C=N/NC(=O)c2ccc(C)c(Cl)c2)cc(OC)c1OC`, for which the AC50 was > 26 µM (inactive).

As to `CCC1CCCCN1C(=O)c1cc(COc2ccc3ncccc3c2)on1` (stereo unspecified), the AC50 was > 26 µM (inactive).

For `Cc1ccc(C2C(C=Nc3c(C)n(C)n(-c4ccccc4)c3=O)=C(c3ccccc3)Oc3ccccc32)cc1` (stereo unspecified), the AC50 was > 26 µM (inactive).

As for `Cc1cc(-c2ccccc2)cc(-c2ccccc2)[n+]1CCc1ccccc1`, the AC50 was > 26 µM (inactive).

As for `C#CCOCCOCCOCCNc1nc(N2CCN(C(=O)CCCCCCCCCCNC(=O)[C@H](CCCCN)n3cc(C)nn3)CC2)nc(N2CCN(C(=O)CCCCCCCCCCNC(=O)[C@H](CCCN=C(N)N)n3cc(C[C@@H](C)CC)nn3)CC2)n1`, the AC50 is > 26 µM (inactive).

`Cc1ccccc1OCC(O)CNC1CCC(NCC(O)COc2ccccc2C)CC1` (stereo unspecified): the AC50 was > 26 µM (inactive).

For `Cc1ccc(S(=O)(=O)N2CCCCC2c2cccnc2)c(C)c1C` (stereo unspecified), the AC50 is > 26 µM (inactive).

For the molecule `COc1cccc(/C=N/NC(=O)c2cc3c(OC)ccc(OC)c3[nH]2)c1O`, the AC50 is > 26 µM (inactive).

For `CCC(C)c1ccc(NC(=S)NC2CCN(Cc3ccccc3)CC2)cc1` (stereo unspecified), the AC50 is > 26 µM (inactive).

As to `CCCC(=O)NC(c1ccc(C)cc1)c1ccc2cccnc2c1O` (stereo unspecified), the AC50 was > 26 µM (inactive).

In the case of `Cc1cccc(C)c1NC(=O)CNC(=O)c1c(C)nn(C)c1Cl`, the AC50 was > 26 µM (inactive).

`Cc1nnc(N=c2ssnc2Cl)o1`: the AC50 was > 26 µM (inactive).

As for `Cc1[nH]n(-c2ccccc2)c(=O)c1/C=N\NC(=O)C1COc2ccccc2O1` (stereo unspecified), the AC50 was > 26 µM (inactive).

On to `c1ccc(N2CCN(CC3CCCCC3)CC2)cc1`, for which the AC50 is > 26 µM (inactive).

As to `COc1ccc(CN(C)c2ccc(S(=O)(=O)N3CCN(C)CC3)cc2[N+](=O)[O-])cc1OC`, the AC50 is > 26 µM (inactive).

In the case of `Nc1ccc(Nc2ccccc2)cc1`, the AC50 was 17.7 µM.

`O=C(NCCCn1ccnc1)c1ccc(N2CCCCCC2)c([N+](=O)[O-])c1`: the AC50 is > 26 µM (inactive).

In the case of `S=C(NCCCN1CCOCC1)N1CCN(c2nc(-c3ccc(Cl)cc3)cs2)CC1`, the AC50 is > 12 µM (inactive).

As for `CCOC(=O)COc1ccc2ccccc2c1/C=C/[N+](=O)[O-]`, the AC50 was > 26 µM (inactive).

On to `N#C/C(=N\Nc1ccc(Cl)cc1)C(=O)c1ccccc1`, for which the AC50 was > 26 µM (inactive).

In the case of `COc1ccc(-c2c[n+]3c(n2-c2ccccc2)CCCCC3)cc1`, the AC50 was > 26 µM (inactive).

In the case of `CCN(CC)c1ccc(/C=N/NC(=O)c2cccc(S(=O)(=O)Nc3ccccc3OC)c2)c(O)c1`, the AC50 was > 26 µM (inactive).

For `O=C(N/N=C/c1cc([N+](=O)[O-])ccc1O)c1cc(-c2ccccc2)nc2ccccc12`, the AC50 was > 26 µM (inactive).

For `C=CCSc1nc2ccccc2n1C(=O)/C=C/c1ccc(OC)c(OC)c1`, the AC50 was > 26 µM (inactive).

Turning to `CCCNC1=C(N(C(C)=O)c2cccc(F)c2)C(=O)c2ccccc2C1=O`, the AC50 is > 26 µM (inactive).

For the molecule `Oc1ccc(CN2CCc3ccccc3C2)c2cccnc12`, the AC50 was > 26 µM (inactive).

As to `c1ccc(-[n+]2nc(Nc3cccc4ccccc34)sc2-c2c3ccccc3cc3ccccc23)cc1`, the AC50 was > 26 µM (inactive).

As to `CCC(=O)NC(c1ccc(OC)cc1)c1cc(Cl)c2cccnc2c1O` (stereo unspecified), the AC50 was > 26 µM (inactive).

Turning to `CCOc1ccc(-n2c(O)c(/C=N/Nc3nc(C)cc(C)n3)c3ccccc3c2=O)cc1`, the AC50 is > 26 µM (inactive).

Regarding `O=C(Nc1nc(-c2ccccc2)cs1)c1ccccc1NS(=O)(=O)c1ccc(F)cc1`, the AC50 was > 26 µM (inactive).

With `Cc1cc(OCC(=O)N(C)Cc2ccccc2)ccc1Cl`, the AC50 was > 26 µM (inactive).

`O=NN(CCc1ccncc1)c1ccc(OCc2ccccc2)cc1`: the AC50 is > 26 µM (inactive).

Turning to `O=C(N/N=C/c1cc([N+](=O)[O-])ccc1O)c1cccc2cc[nH]c12`, the AC50 was > 26 µM (inactive).

In the case of `Nc1nc(-c2ccccn2)nc(N)c1Cc1c(F)cccc1Cl`, the AC50 is > 26 µM (inactive).

In the case of `CCN1c2ccccc2N(C)C1(C)c1ccccc1` (stereo unspecified), the AC50 was > 26 µM (inactive).

On to `Cc1cc([N+](=O)[O-])nn1Cc1ccc(C(=O)N/N=C/c2ccc(O)cc2O)cc1`, for which the AC50 was > 26 µM (inactive).

In the case of `COc1cc(C(=O)N/N=C(\C)c2ccccn2)cc(OC)c1OC`, the AC50 is > 26 µM (inactive).

With `O=C(NCc1ccccn1)c1cc(-c2ccc(Cl)cc2)oc1C(F)(F)F`, the AC50 is > 26 µM (inactive).

As to `Cn1c(=O)[nH]c(=O)c2c1nc(N1CCN(C(c3ccccc3)c3ccccc3)CC1)n2CCO`, the AC50 is > 26 µM (inactive).

In the case of `CC(C)c1ccccc1-n1c(SCC(=O)N2CCc3ccccc3C2)nc2ccccc2c1=O`, the AC50 was > 26 µM (inactive).

Take `c1ccc(-c2cc(-c3ccccc3)[n+](-c3ccccc3)c(-c3ccccc3)c2)cc1`: the AC50 was > 26 µM (inactive).

For the molecule `CCOC(=O)/C(=C\c1ccc([N+](=O)[O-])cc1)C(=O)c1cc(C(C)=O)c(Nc2ccccc2)s1`, the AC50 was > 26 µM (inactive).

Take `O=c1cc(N2CCN(c3cccc(Cl)c3)CC2)[nH]c(=O)n1C1CCCCC1`: the AC50 was > 26 µM (inactive).

With `C[n+]1c2n(c3ccccc31)N=C(c1ccc(Cl)cc1)CS2`, the AC50 is > 26 µM (inactive).

Take `CC[C@H]1CN2CCc3cc(OC)c(OC)cc3[C@@H]2C[C@@H]1C[C@H]1NCCc2cc(OC)c(OC)cc21`: the AC50 is > 26 µM (inactive).

Turning to `Cc1ccc2c(c1)nnn2C1CCN(S(=O)(=O)c2ccc(C(=O)N3C(C)CCCC3C)cc2)CC1` (stereo unspecified), the AC50 is > 26 µM (inactive).

`O=C1C(=O)c2ccccc2-c2ccccc21`: the AC50 is > 26 µM (inactive).

On to `CCCC(=O)NC(c1ccccc1)c1ccc2cccnc2c1O` (stereo unspecified), for which the AC50 is > 26 µM (inactive).

For `Cc1ccc(-c2nn(-c3ccccc3)cc2/C=N/NC(=O)c2ccc(Br)o2)cc1`, the AC50 is > 26 µM (inactive).

Turning to `O=C(NC(Nc1nc2ccc([N+](=O)[O-])cc2s1)(C(F)(F)F)C(F)(F)F)c1cccnc1`, the AC50 is > 26 µM (inactive).

Take `COc1cc(C(=O)NC(=S)NNC(=O)c2cnccn2)cc(OC)c1OC`: the AC50 is > 26 µM (inactive).

As for `COc1ccc(-c2nn(-c3ccccc3)cc2C(=O)OCC(=O)c2ccc(C)c([N+](=O)[O-])c2)cc1`, the AC50 was > 26 µM (inactive).

On to `O=C(Nc1cccc(S(=O)(=O)Nc2ccc(Cl)cc2)c1)c1ccc(Cl)nc1`, for which the AC50 is > 26 µM (inactive).

Consider `CCN(CC)S(=O)(=O)c1cc([N+](=O)[O-])ccc1NNC(=O)Nc1ccc(Cl)c(Cl)c1`, for which the AC50 is > 26 µM (inactive).

Consider `Cc1ccccc1Oc1cc(-n2ncc(Cl)c(Cl)c2=O)ncn1`, for which the AC50 was > 26 µM (inactive).

On to `O=C(c1ccccc1)c1c2c(cc3sc4ccccc4[n+]13)-c1cccc3cccc-2c13`, for which the AC50 is > 26 µM (inactive).

For the molecule `CCOc1ccc(C(=O)N/N=C(\c2ccccc2)c2ccccn2)cc1`, the AC50 is > 26 µM (inactive).
